A melting point compilation (Tetko et al.)

First: CCC(C)(C)c1ccc(OCC(=O)Nc2cccc(C(=O)Nc3[nH]n(-c4c(Cl)cc(Cl)cc4Cl)c(=O)c3-n3nnn(-c4ccccc4)c3=S)c2)c(C(C)(C)CC)c1
Second: Cc1ccc(C(=O)OCCN(C)C)cc1-n1c(C)cc(OCc2ccc(F)cc2CNC(=O)Nc2cc(C(C)(C)C)nn2-c2cccc(OCCO)c2)c(Cl)c1=O
The melting point of the first is higher: 169 to 171 °C for the first, 158 to 160 °C for the second.

First: CN(C)C(=O)c1cc2c(nc(C3CC3)n2C)c(O)c1CCC(O)c1ccccc1 (stereo not given)
Second: CCC(CC)NC(=O)c1ccc(-c2scc(-c3ccccc3Cl)c2CC(=O)OC)cc1
The melting point of the first is higher: 92 to 94 °C for the first, 57 to 59 °C for the second.

Compared with `CCC(Cc1c(I)cc(I)c(NC(=O)CN2CCN(CC(=O)O)CCN(CC(=O)O)CCN(CC(=O)O)CC2)c1I)C(=O)O` (stereo not given), `CC(=O)Nc1c(I)c(C(=O)N(C)CC(O)C(O)C(O)C(O)CO)c(I)c(N(C)C(C)=O)c1I` (stereo not given) is lower in melting point: 230 °C for the first, 110 to 130 °C for the second.

First: Cc1ccc(C(c2ccc(C)c(C(OS(C)(=O)=O)(C(F)(F)F)C(F)(F)F)c2)(C(F)(F)F)C(F)(F)F)cc1C(OS(C)(=O)=O)(C(F)(F)F)C(F)(F)F
Second: [C-]#[N+]C1(C)CN(C(=O)Nc2ccc(C(F)(F)F)cc2)N=C1c1ccc(Cl)cc1 (stereo not given)
The melting point of the first is lower: 135 °C for the first, 171 to 173 °C for the second.

First: [C-]#[N+]Cc1c(OC)cc(OC)cc1OC
Second: COc1cc2c(cc1I)C(=O)CC2
The melting point of the first is lower: 107 to 109 °C for the first, 129 to 130 °C for the second.

First: CCC1(O)CC(OC2CC(N(C)C)C(OC3CC4OC5CC(=O)C(C)OC5OC4C(C)O3)C(C)O2)c2c(cc3c(c2O)C(=O)c2c(O)cccc2C3=O)C1C(=O)OC (stereo not given)
Second: Cc1ccc2cccc(OCc3c(Cl)ccc(S(=O)(=O)N4CCC[C@H]4C(=O)NC4CCN(C(=O)CCCN(C=NC(=O)OC(C)(C)C)NC(=O)OC(C)(C)C)CC4)c3Cl)c2n1
The melting point of the first is higher: 161 °C for the first, 102 to 105 °C for the second.

First: CCCCCCCCCCCCCCCCCCCCCCCCCCCCCCCCCCCCCCCCCCCC
Second: C=C1C(n2ccc(NC(=O)CCCCCCCCCCCCCCCCC)nc2=O)OC(COC(=O)CCCCCCCCCCCCCCCCC)C1(O)C(=O)CCCCCCCCCCCCCCCCC (stereo not given)
The melting point of the first is lower: 87.5 to 88 °C for the first, 92 to 96 °C for the second.

First: CCCCCCCCCCSc1c(SCCCCCCCCCC)c(SCCCCCCCCCC)c(SCCCCCCCCCC)c(SCCCCCCCCCC)c1SCCCCCCCCCC
Second: CCCCCCCCCCCCCCCCCC(=O)OCC(COC(=O)C(N)Cc1ccc(N(CCCl)CCCl)cc1)OC(=O)CCCCCCCCCCCCCCCCC (stereo not given)
The melting point of the first is lower: 29 to 30 °C for the first, 82 to 83 °C for the second.

First: O=C1OC(O)c2cccc(F)c21 (stereo not given)
Second: O=C(Nc1cc(Cl)cc(Cl)c1)c1c(O)ccc2ccccc12
The melting point of the first is lower: 126 to 127 °C for the first, 246 to 248 °C for the second.

Compared with `CCCCC(CC)C(=O)Cl` (stereo not given), `CCCCCCCCCCCCS(=O)(=O)Nc1cc(C(=O)Nc2ccc(Cl)c(Cl)c2)ccc1OC` is higher in melting point: under -75 °C for the first, 151 to 152 °C for the second.

First: COC(=O)CNC(=O)[C@H](NC(=O)[C@@H](CSC(c1ccccc1)(c1ccccc1)c1ccccc1)NC(=O)[C@@H](CCCCNC(=O)OC(C)(C)C)NC(=O)C[C@H](O)C=CCCSC(c1ccccc1)(c1ccccc1)c1ccccc1)C(C)C
Second: CCC(C)CNC(=O)C(CC(O)C(CC(C)C)NC(=O)C(Cc1cscn1)NC(=O)C(CC(=O)N(C)C1CCCCC1)Cc1cccc2ccccc12)C(C)(C)O (mixture of isomers)
The melting point of the first is lower: 85 to 87 °C for the first, 187 to 190 °C for the second.

First: Cc1ccnc2nc(SCc3ccccc3)nn12
Second: CCCCCCCCCCCCC=CCCC(Cl)CC1CC(=O)N(N(c2ccccc2)c2[nH]n(-c3c(Cl)cc(Cl)cc3Cl)c(=O)c2OC(=O)c2cc([N+](=O)[O-])ccc2N)C1=O (stereo not given)
The melting point of the first is lower: 102 to 104 °C for the first, 118 to 121 °C for the second.

First: CCCCc1ccc(C(=O)Nc2ccc(OC(=O)c3ccc(CCCC)cc3)c3c2C(=O)c2c(NC(=O)c4ccc(CCCC)cc4)cc(C)c(OC(=O)c4ccc(CCCC)cc4)c2C3=O)cc1
Second: CCCCCCCCCCCCc1ccsc1-c1ccc2c(c1)=C(C(C#N)C#N)c1cc3c(cc1=2)C(C(C#N)C#N)=c1cc(-c2sccc2CCCCCCCCCCCC)ccc1=3
The melting point of the first is higher: over 250 °C for the first, 232 to 233 °C for the second.

First: CC(C)c1cc(C(C)C)c(CC(=O)NS(=O)(=O)Oc2c(C(C)C)cc(C(=O)[C@H](CCCCNC(=O)OC(C)(C)C)NC(=O)OC(C)(C)C)cc2C(C)C)c(C(C)C)c1
Second: COc1cc(OC)c(/C=C/C(c2ccc(OC)c(NC(=O)C(C)OC(C)=O)c2)S(=O)(=O)C(/C=C/c2c(OC)cc(OC)cc2OC)c2ccc(OC)c(NC(=O)C(C)OC(C)=O)c2)c(OC)c1 (stereo not given)
The melting point of the first is lower: 167 to 171 °C for the first, 179 to 180 °C for the second.

First: Cc1cc(Cc2ccc(O)c(C(c3cc(C)c(O)cc3C)c3cc(C)c(O)cc3C)c2)c(O)c(Cc2ccc(O)c(C(c3cc(C)c(O)cc3C)c3cc(C)c(O)cc3C)c2)c1
Second: C=Cc1cc(C=Cc2cc(C=Cc3cc(C(C)(C)C)cc(C(C)(C)C)c3)cc(C=Cc3cc(C(C)(C)C)cc(C(C)(C)C)c3)c2)cc(C=Cc2cc(C=Cc3cc(C(C)(C)C)cc(C(C)(C)C)c3)cc(C=Cc3cc(C(C)(C)C)cc(C(C)(C)C)c3)c2)c1
The melting point of the first is higher: 276 °C for the first, 272 to 275 °C for the second.
